Test results: ChEMBL document CHEMBL1201862, “PubChem BioAssay data set” (2004)
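Results reflect a 48-hour exposure of cells in 96-well plates to compound at five concentrations. At the GI50, growth is halved.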 Active and inactive are the calls of the source. Rule as the data show it: active = GI50 up to about 1.1 µM and inactive = higher.

Experiments:
Assay in all cases: NCI anticancer screen, dose series, 48 h
EKVX = test system: EKVX
MDA-MB-435 = test system: MDA-MB-435
RPMI-8226 = test system: RPMI-8226
T47D = test system: T47D
SNB-75 = test system: SNB-75
SN12C = test system: SN12C
TK-10 = test system: TK-10
OVCAR-5 = test system: OVCAR-5
Malme-3M = test system: Malme-3M
HCT-116 = test system: HCT-116
NCI-H23 = test system: NCI-H23
ACHN = test system: ACHN
SK-MEL-2 = test system: SK-MEL-2
UACC-257 = test system: UACC-257
SF-268 = test system: SF-268
SR = test system: SR
SK-MEL-28 = test system: SK-MEL-28
Hs-578T = test system: Hs-578T
NCI-H460 = test system: NCI-H460
SNB-19 = test system: SNB-19
DU-145 = test system: DU-145
A549 = test system: A549
SK-OV-3 = test system: SK-OV-3
SF-539 = test system: SF-539
KM12 = test system: KM12
CAKI-1 = test system: CAKI-1
HT-29 = test system: HT-29
IGROV-1 = test system: IGROV-1
A498 = test system: A498
UO-31 = test system: UO-31
786-0 = test system: 786-0
NCI-H226 = test system: NCI-H226
COLO 205 = test system: COLO 205
HOP-92 = test system: HOP-92
MCF7 = test system: MCF7
HOP-62 = test system: HOP-62
SW-620 = test system: SW-620
M14 = test system: M14
SF-295 = test system: SF-295
K562 = test system: K562
OVCAR-4 = test system: OVCAR-4
LOX IMVI = test system: LOX IMVI
CCRF-CEM = test system: CCRF-CEM
OVCAR-3 = test system: OVCAR-3
NCI/ADR-RES = test system: NCI/ADR-RES
MDA-N = test system: MDA-N
BT-549 = test system: BT-549
HCC 2998 = test system: HCC 2998
OVCAR-8 = test system: OVCAR-8
HL-60 = test system: HL-60
MOLT-4 = test system: MOLT-4
HCT-15 = test system: HCT-15
PC-3 = test system: PC-3
SK-MEL-5 = test system: SK-MEL-5
UACC-62 = test system: UACC-62
NCI-H522 = test system: NCI-H522
U-251 = test system: U-251
MDA-MB-231 = test system: MDA-MB-231
RXF 393 = test system: RXF 393

Measured: GI50

COC(=O)c1ccc(C(=O)NC(Cc2ccc(Oc3cc(CC(NC(=O)c4ccccc4C(=O)OC)C(=O)OC)ccc3OC)cc2)C(=O)OC)cc1 (configuration not stated)
inactive: EKVX > 100 µM | MDA-MB-435 > 100 µM | RPMI-8226 > 100 µM | T47D > 100 µM | SNB-75 42.6 µM | SN12C > 100 µM | TK-10 > 100 µM | OVCAR-5 > 100 µM | Malme-3M > 100 µM | HCT-116 > 100 µM | NCI-H23 > 100 µM | ACHN > 100 µM | SK-MEL-2 77.8 µM | UACC-257 > 100 µM | SF-268 > 100 µM | SR > 100 µM | SK-MEL-28 > 100 µM | Hs-578T 4.21 µM | NCI-H460 > 100 µM | SNB-19 31.6 µM | DU-145 > 100 µM | A549 > 100 µM | SK-OV-3 67 µM | SF-539 63.5 µM | KM12 > 100 µM | CAKI-1 > 100 µM | HT-29 > 100 µM | IGROV-1 > 100 µM | A498 72.6 µM | UO-31 > 100 µM | 786-0 > 100 µM | NCI-H226 > 100 µM | COLO 205 > 100 µM | HOP-92 > 100 µM | MCF7 67.5 µM | HOP-62 36.3 µM | SW-620 > 100 µM | M14 > 100 µM | SF-295 43.9 µM | K562 > 100 µM | OVCAR-4 > 100 µM | LOX IMVI > 100 µM | CCRF-CEM > 100 µM | OVCAR-3 > 100 µM | NCI/ADR-RES > 100 µM | MDA-N > 100 µM | BT-549 74.8 µM | HCC 2998 > 100 µM | OVCAR-8 86.3 µM | HL-60 > 100 µM | MOLT-4 > 100 µM | PC-3 > 100 µM
> 100 µM: HCT-15

CCOC(=O)C(C(=O)OCC)C(=S)NC1OC(COC(C)=O)C(OC(C)=O)C(OC(C)=O)C1OC(C)=O (configuration not stated)
inactive: SK-MEL-5 > 100 µM | EKVX > 100 µM | MDA-MB-435 > 100 µM | UACC-62 > 100 µM | RPMI-8226 > 100 µM | T47D > 100 µM | NCI-H522 > 100 µM | SN12C > 100 µM | OVCAR-5 > 100 µM | Malme-3M > 100 µM | HCT-116 > 100 µM | NCI-H23 > 100 µM | SK-MEL-2 > 100 µM | UACC-257 > 100 µM | SF-268 > 100 µM | SR > 100 µM | SK-MEL-28 > 100 µM | Hs-578T > 100 µM | NCI-H460 > 100 µM | SNB-19 > 100 µM | DU-145 > 100 µM | A549 > 100 µM | SK-OV-3 > 100 µM | SF-539 > 100 µM | KM12 > 100 µM | CAKI-1 > 100 µM | HT-29 > 100 µM | IGROV-1 > 100 µM | A498 > 100 µM | UO-31 > 100 µM | 786-0 > 100 µM | NCI-H226 > 100 µM | COLO 205 > 100 µM | HOP-92 > 100 µM | MCF7 > 100 µM | HOP-62 > 100 µM | SW-620 > 100 µM | U-251 > 100 µM | M14 > 100 µM | SF-295 > 100 µM | OVCAR-4 > 100 µM | LOX IMVI > 100 µM | CCRF-CEM > 100 µM | MDA-MB-231 > 100 µM | OVCAR-3 > 100 µM | NCI/ADR-RES > 100 µM | RXF 393 > 100 µM | MDA-N > 100 µM | BT-549 > 100 µM | HCC 2998 > 100 µM | OVCAR-8 > 100 µM | HL-60 > 100 µM | MOLT-4 > 100 µM
> 100 µM: HCT-15

CC1(C)OC(=O)C(=Cc2ccc([N+](=O)[O-])s2)C(=O)O1
3.18 µM: HCT-15
inactive: SK-MEL-5 16.2 µM | EKVX 17.1 µM | MDA-MB-435 14.9 µM | RPMI-8226 8.32 µM | T47D 14 µM | SN12C 16.1 µM | TK-10 17.3 µM | OVCAR-5 16.6 µM | Malme-3M 19.2 µM | HCT-116 2.4 µM | NCI-H23 18.1 µM | ACHN 13.7 µM | UACC-257 18.6 µM | SF-268 14.7 µM | SR 2.72 µM | SK-MEL-28 18.9 µM | NCI-H460 56.6 µM | SNB-19 16.5 µM | DU-145 15.8 µM | A549 90.8 µM | SK-OV-3 25.5 µM | SF-539 15.4 µM | KM12 14.7 µM | CAKI-1 15.6 µM | HT-29 13.4 µM | A498 22.5 µM | UO-31 10.8 µM | 786-0 16.9 µM | NCI-H226 23.5 µM | COLO 205 16.6 µM | HOP-92 21.1 µM | MCF7 12.7 µM | HOP-62 18.2 µM | SW-620 1.94 µM | U-251 15.4 µM | M14 12.3 µM | SF-295 15.7 µM | LOX IMVI 16.7 µM | CCRF-CEM 13.2 µM | MDA-MB-231 18.9 µM | OVCAR-3 10.6 µM | NCI/ADR-RES 18.5 µM | MDA-N 14.9 µM | BT-549 13.4 µM | HCC 2998 11.3 µM | OVCAR-8 11.4 µM | HL-60 2.49 µM | MOLT-4 8.22 µM | PC-3 19.2 µM
